Measurements from ChEMBL document CHEMBL1132091, “Synthesis and biological activity of substituted bis-(4-hydroxyphenyl)methanes as N-type calcium channel blockers” (Bioorg Med Chem Lett, 1999).

Experiments:
[1] = target: T1, Voltage-dependent N-type calcium channel subunit alpha-1B (Homo sapiens, UniProt Q00975); assay: Inhibition of N-type calcium channels in IMR-32 human neuroblastoma cells; type: functional, cell-based
Target sequence in this assay (Q00975 whole entry): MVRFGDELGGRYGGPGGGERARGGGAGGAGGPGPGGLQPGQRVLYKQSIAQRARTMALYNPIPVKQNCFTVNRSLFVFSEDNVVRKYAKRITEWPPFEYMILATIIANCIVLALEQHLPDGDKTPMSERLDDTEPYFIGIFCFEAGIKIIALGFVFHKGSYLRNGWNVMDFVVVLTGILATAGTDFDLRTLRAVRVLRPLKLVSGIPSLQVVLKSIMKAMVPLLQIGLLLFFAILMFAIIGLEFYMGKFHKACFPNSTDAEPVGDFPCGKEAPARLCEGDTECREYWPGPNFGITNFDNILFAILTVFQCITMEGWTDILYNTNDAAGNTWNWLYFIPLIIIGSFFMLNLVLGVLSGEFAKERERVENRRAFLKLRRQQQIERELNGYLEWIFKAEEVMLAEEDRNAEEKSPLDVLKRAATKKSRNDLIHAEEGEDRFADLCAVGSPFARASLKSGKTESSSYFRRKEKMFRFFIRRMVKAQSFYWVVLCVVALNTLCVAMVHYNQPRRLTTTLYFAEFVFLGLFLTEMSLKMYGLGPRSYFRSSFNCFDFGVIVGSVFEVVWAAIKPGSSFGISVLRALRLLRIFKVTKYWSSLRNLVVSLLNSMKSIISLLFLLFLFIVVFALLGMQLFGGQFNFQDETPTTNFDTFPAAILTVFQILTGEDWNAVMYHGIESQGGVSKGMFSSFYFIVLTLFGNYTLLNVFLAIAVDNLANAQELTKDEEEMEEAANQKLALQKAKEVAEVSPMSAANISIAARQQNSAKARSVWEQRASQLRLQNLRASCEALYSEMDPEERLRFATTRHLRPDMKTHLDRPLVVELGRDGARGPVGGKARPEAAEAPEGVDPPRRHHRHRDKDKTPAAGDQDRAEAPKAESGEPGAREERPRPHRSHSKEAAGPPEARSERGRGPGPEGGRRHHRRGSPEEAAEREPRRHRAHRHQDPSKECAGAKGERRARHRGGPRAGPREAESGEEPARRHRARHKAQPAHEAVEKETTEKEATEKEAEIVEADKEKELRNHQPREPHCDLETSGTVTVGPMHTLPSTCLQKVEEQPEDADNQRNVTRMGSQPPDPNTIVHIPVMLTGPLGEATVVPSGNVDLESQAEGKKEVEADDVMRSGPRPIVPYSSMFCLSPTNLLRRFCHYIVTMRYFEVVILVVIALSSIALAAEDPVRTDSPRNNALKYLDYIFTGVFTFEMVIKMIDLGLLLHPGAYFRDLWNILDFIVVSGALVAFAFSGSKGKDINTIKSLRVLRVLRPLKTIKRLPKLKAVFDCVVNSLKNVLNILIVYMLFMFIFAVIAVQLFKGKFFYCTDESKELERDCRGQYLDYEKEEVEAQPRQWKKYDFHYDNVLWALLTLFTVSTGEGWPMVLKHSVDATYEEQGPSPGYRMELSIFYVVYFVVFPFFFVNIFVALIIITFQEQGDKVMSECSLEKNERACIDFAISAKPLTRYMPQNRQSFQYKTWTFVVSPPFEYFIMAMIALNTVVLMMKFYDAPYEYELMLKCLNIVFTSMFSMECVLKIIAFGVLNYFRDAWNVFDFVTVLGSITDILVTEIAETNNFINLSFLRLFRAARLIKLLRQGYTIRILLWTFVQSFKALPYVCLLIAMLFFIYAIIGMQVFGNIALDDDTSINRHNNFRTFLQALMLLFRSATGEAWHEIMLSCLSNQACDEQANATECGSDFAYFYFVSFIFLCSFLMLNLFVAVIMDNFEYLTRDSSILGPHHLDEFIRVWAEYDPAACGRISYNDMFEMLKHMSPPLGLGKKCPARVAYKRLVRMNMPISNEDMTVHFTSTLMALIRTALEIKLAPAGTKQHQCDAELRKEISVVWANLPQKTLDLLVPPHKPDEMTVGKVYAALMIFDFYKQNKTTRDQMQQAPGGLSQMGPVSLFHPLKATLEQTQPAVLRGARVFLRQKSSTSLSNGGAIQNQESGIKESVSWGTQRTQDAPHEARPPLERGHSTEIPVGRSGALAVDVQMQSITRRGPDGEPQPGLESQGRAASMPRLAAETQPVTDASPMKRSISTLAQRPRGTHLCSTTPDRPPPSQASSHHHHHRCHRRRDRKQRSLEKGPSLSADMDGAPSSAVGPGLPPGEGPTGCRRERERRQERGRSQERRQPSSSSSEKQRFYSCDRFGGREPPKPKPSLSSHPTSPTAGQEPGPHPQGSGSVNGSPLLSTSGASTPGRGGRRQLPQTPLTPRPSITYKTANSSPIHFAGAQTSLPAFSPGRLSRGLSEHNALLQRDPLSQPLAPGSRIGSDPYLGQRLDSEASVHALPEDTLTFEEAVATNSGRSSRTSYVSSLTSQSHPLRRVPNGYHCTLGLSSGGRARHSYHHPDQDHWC

[2] = target: T1, Voltage-dependent N-type calcium channel subunit alpha-1B; assay: Inhibition of N-type calcium channel in IMR-32 human neuroblastoma cell; type: functional
Target sequence in this assay (Q00975 whole entry): as above

[3] = target: Voltage-gated L-type calcium channel (Rattus norvegicus, UniProt P22002+Q02485+P27732); assay: Inhibition of L-type calcium channels in GH-3 rat pituitary cells; type: functional, cell-based; settings: pituitary gland cell
[4] = Blockade of K+ channels in SCG neurons at 10 uM; type: functional; settings: Rattus norvegicus
[5] = Blockade of Na+ channels in SCG neurons at 10 uM; type: functional; settings: Rattus norvegicus
[6] = target: T1, Voltage-dependent N-type calcium channel subunit alpha-1B; assay: Inhibition of N-type calcium channels in IMR-32 human neuroblastoma cells at 10 uM; type: functional, cell-based
Target sequence in this assay (Q00975 whole entry, looked up): as the sequence (Q00975 whole entry) above

Structure (SMILES)	IC50 [1] [µM]	IC50 [2] [µM]	IC50 [3] [µM]	inhibition [6] [%]	inhibition at 10 µM [4] [%]	inhibition at 10 µM [5] [%]
Oc1c(/C=N\C2CCCCC2)ccc2cnccc12	35					
CC(C)(c1ccc(O)c(CN2CCCCCC2)c1)c1ccc(O)c(CN2CCCCCC2)c1		0.97	2		77	81
CC(CCC(O)(c1ccccc1)c1ccccc1)(c1ccc(O)c(CN2CCCCCC2)c1)c1ccc(O)c(CN2CCCCCC2)c1			0.9		61	78
CC(CCC(=O)N(Cc1ccccc1)Cc1ccccc1)(c1ccc(O)cc1)c1ccc(O)cc1				-6		

The next lines start with results.

IC50 [1] [µM]	IC50 [2] [µM]	IC50 [3] [µM]	inhibition [6] [%]	Structure (SMILES)	inhibition at 10 µM [4] [%]	inhibition at 10 µM [5] [%]
	1.8			CC(CCC(O)(c1ccccc1)c1ccccc1)(c1ccc(O)cc1)c1ccc(O)c(CN2CCCCCC2)c1 (configuration not stated)		
		4.1		CC(CCCN(Cc1ccccc1)Cc1ccccc1)(c1ccc(O)c(CN2CCCCCC2)c1)c1ccc(O)c(CN2CCCCCC2)c1	28	24
		9.1		CC(CCC(c1ccccc1)c1ccccc1)(c1ccc(O)c(CN2CCCCCC2)c1)c1ccc(O)c(CN2CCCCCC2)c1	18	5
	1.8			O=C(NCC(c1ccc(O)c(CN2CCCCCC2)c1)c1ccc(O)c(CN2CCCCCC2)c1)C(c1ccccc1)c1ccccc1		
